{"source": "ChEMBL document CHEMBL6103648", "about": "“AI-Driven Discovery of Highly Specific and Efficacious hCES2A Inhibitors for Ameliorating Irinotecan-Triggered Gut Toxicity” (J Med Chem, 2025)", "key": {"[1]": {"assay": "Inhibition of human CES2A using fluorescein diacetate as substrate preincubated for 3 mins followed by substrate addition measured after 30 mins by fluorescence based assay"}, "[2]": {"assay": "Inhibition of human CES2A incubated for 3 mins"}, "Homo sapiens [3]": {"species": "Homo sapiens", "assay": "Inhibition of human CES2A assessed as decrease in residual activity measured upto 30 mins", "conditions": "dose <= 1.6 nM"}, "[4]": {"assay": "(§1) Covalent inhibition of human CES2A"}, "Homo sapiens [5]": {"species": "Homo sapiens", "assay": "as §1"}, "[6]": {"assay": "Inhibition of human CES1A using NLMe as substrate preincubated for 3 mins followed by substrate addition measured after 30 mins by chemiluminescence analysis"}, "Cholinesterase": {"molecular_target": "Cholinesterase (Homo sapiens, UniProt P06276)", "sequence (P06276 whole entry)": "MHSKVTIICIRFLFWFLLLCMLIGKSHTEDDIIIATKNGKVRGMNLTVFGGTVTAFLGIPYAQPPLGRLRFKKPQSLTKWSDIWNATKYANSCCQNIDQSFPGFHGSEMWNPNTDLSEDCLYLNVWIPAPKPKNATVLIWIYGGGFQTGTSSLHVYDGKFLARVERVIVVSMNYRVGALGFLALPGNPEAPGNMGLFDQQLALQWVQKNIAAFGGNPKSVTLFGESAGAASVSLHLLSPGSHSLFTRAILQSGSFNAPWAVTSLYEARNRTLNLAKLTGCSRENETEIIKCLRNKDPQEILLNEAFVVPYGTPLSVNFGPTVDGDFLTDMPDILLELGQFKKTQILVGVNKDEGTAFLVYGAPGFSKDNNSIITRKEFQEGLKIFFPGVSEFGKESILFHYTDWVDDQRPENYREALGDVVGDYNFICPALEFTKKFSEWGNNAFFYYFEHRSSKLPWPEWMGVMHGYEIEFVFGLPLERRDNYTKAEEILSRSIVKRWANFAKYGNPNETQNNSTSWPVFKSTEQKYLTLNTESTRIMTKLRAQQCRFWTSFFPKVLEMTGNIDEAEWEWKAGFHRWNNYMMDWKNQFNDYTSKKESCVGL", "assay": "Inhibition of human BuChE using BTCI as substrate incubated for 33 mins by Ellman's method"}, "Acetylcholinesterase": {"molecular_target": "Acetylcholinesterase (Homo sapiens, UniProt P22303)", "sequence (P22303 whole entry)": "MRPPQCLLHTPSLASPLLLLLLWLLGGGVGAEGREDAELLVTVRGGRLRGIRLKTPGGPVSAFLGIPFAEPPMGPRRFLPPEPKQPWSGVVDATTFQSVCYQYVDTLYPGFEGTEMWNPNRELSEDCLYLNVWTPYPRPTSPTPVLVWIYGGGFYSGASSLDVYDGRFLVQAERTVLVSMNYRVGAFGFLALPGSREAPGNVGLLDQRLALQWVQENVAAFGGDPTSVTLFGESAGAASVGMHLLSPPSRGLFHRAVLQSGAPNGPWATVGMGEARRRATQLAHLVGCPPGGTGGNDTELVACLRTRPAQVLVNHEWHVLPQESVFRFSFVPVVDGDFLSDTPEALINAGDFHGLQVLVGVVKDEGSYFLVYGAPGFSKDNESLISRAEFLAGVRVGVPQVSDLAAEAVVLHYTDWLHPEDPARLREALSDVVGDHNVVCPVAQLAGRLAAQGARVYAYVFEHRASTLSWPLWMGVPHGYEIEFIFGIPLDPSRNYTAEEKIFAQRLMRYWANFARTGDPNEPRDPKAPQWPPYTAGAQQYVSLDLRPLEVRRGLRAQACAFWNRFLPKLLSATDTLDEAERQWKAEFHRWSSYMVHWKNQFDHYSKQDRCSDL", "assay": "Inhibition of human AChE using ATCI as substrate incubated for 3 mins by Ellman's method"}, "[7]": {"molecular_target": "T1, Palmitoleoyl-protein carboxylesterase NOTUM (Homo sapiens, UniProt Q6P988)", "T1 sequence (Q6P988 whole entry)": "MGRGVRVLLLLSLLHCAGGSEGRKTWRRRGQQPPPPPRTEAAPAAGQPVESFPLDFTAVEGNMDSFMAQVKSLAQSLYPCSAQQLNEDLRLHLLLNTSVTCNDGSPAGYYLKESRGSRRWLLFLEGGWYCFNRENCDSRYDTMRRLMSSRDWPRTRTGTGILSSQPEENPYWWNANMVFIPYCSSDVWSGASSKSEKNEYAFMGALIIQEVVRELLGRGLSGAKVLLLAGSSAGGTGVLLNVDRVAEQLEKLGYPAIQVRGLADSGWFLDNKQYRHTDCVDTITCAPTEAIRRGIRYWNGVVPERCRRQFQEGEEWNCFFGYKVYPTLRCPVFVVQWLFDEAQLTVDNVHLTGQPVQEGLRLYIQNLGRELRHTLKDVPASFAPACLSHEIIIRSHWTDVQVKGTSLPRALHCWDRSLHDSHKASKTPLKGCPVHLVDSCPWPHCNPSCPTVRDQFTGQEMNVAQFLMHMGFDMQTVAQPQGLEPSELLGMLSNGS", "assay": "Inhibition of human Notum using OPTS as substrate preincubated for 1 min followed by substrate addition by fluorescence based assay"}, "[8]": {"assay": "Permeability across apical to basal side in human Caco-2 cells assessed as cumulative penetration amount at 50 uM incubated for 120 mins by UPLC-MS/MS analysis", "format": "ADME, cell-based", "conditions": "caco-2, 2 h"}, "[9]": {"assay": "Permeability across apical to basal side in human Caco-2 cells assessed as cumulative penetration amount at 100 uM incubated for 120 mins by UPLC-MS/MS analysis", "format": "ADME, cell-based", "conditions": "caco-2, 2 h"}, "[10]": {"assay": "Permeability across basal to apical side in human Caco-2 cells assessed as cumulative penetration amount at 50 uM incubated for 120 mins by UPLC-MS/MS analysis", "format": "ADME, cell-based", "conditions": "caco-2, 2 h"}, "[11]": {"assay": "Permeability across basal to apical side in human Caco-2 cells assessed as cumulative penetration amount at 100 uM incubated for 120 mins by UPLC-MS/MS analysis", "format": "ADME, cell-based", "conditions": "caco-2, 2 h"}, "[12]": {"assay": "Apparent permeability across apical to basal side in human Caco-2 cells at 100 uM incubated for 120 mins by UPLC-MS/MS analysis", "format": "ADME, cell-based"}, "[13]": {"assay": "Apparent permeability across basal to apical side in human Caco-2 cells at 25 uM incubated for 120 mins by UPLC-MS/MS analysis", "format": "ADME, cell-based"}, "HepG2": {"test_system": "HepG2", "assay": "Cytotoxicity against human HepG2 cells at <20 uM", "format": "toxicity, cell-based", "conditions": "hepg2, 20 µM"}, "Cytochrome P450 2C19": {"molecular_target": "Cytochrome P450 2C19 (Homo sapiens, UniProt P33261)", "sequence (P33261 whole entry)": "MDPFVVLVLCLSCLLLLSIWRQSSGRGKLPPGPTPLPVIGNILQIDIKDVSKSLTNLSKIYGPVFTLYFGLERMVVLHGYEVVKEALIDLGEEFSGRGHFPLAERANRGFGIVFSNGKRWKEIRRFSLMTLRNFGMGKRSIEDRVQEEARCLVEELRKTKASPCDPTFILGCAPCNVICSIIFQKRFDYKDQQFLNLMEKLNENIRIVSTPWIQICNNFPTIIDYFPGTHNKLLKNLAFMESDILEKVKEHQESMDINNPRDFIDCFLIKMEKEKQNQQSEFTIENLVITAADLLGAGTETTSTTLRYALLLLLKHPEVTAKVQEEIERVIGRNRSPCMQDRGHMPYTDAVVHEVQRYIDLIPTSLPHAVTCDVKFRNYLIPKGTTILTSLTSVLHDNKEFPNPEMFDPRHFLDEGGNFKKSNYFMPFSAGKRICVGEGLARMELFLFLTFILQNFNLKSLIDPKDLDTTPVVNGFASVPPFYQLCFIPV", "assay": "Inhibition of CYP2C19 in human liver microsomes using omeprazole as substrate upto 10 uM", "format": "ADME, Microsome"}, "Cytochrome P450 3A4": {"molecular_target": "Cytochrome P450 3A4 (Homo sapiens, UniProt P08684)", "sequence (P08684 whole entry)": "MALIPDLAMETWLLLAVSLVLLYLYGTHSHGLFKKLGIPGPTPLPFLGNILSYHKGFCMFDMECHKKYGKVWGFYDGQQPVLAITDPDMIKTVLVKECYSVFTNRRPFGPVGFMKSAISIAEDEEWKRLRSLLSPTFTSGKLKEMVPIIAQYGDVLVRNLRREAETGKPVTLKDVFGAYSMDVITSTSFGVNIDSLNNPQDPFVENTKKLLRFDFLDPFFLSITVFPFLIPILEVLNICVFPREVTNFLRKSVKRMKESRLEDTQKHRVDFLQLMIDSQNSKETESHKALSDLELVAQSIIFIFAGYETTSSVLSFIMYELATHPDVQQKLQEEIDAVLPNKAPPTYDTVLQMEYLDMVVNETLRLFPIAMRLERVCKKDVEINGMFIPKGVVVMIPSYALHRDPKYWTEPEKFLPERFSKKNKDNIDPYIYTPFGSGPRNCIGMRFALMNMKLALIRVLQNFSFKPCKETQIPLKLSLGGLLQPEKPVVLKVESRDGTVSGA", "assay": "Inhibition of CYP3A4 in human liver microsomes using testosterone as substrate upto 10 uM", "format": "ADME, Microsome"}, "[14]": {"assay": "Sub-acute toxicity in C57BL/6J mouse assessed as body weight change at 100 mg/kg/day, po treated for 14 days consecutively", "format": "organism-based", "conditions": "in vivo, 336 h, time 14 day"}, "[15]": {"assay": "Sub-acute toxicity in C57BL/6J mouse assessed as change in mental state at 100 mg/kg/day, po treated for 14 days consecutively", "format": "organism-based", "conditions": "in vivo, 336 h, time 14 day"}, "[16]": {"assay": "Sub-acute toxicity in C57BL/6J mouse assessed as abnormality in liver at 100 mg/kg/day, po treated for 14 days consecutively by H and E staining based analysis", "format": "organism-based", "conditions": "in vivo, 336 h, time 14 day"}, "[17]": {"assay": "Sub-acute toxicity in C57BL/6J mouse assessed as abnormality in brain at 100 mg/kg/day, po treated for 14 days consecutively by H and E staining based analysis", "format": "organism-based", "conditions": "in vivo, 336 h, time 14 day"}, "[18]": {"assay": "Sub-acute toxicity in C57BL/6J mouse assessed as abnormality in lung at 100 mg/kg/day, po treated for 14 days consecutively by H and E staining based analysis", "format": "organism-based", "conditions": "in vivo, 336 h, time 14 day"}, "[19]": {"assay": "Sub-acute toxicity in C57BL/6J mouse assessed as abnormality in gastrointestinal tract at 100 mg/kg/day, po treated for 14 days consecutively by H and E staining based analysis", "format": "organism-based", "conditions": "in vivo, 336 h, time 14 day"}, "[20]": {"assay": "Sub-acute toxicity in C57BL/6J mouse assessed as change in AST level at 100 mg/kg/day, po treated for 14 days consecutively", "format": "organism-based", "conditions": "in vivo, 336 h, time 14 day"}, "[21]": {"assay": "Sub-acute toxicity in C57BL/6J mouse assessed as change in ALB level at 100 mg/kg/day, po treated for 14 days consecutively", "format": "organism-based", "conditions": "in vivo, 336 h, time 14 day"}, "[22]": {"assay": "Sub-acute toxicity in C57BL/6J mouse assessed as change in ALP level at 100 mg/kg/day, po treated for 14 days consecutively", "format": "organism-based", "conditions": "in vivo, 336 h, time 14 day"}, "[23]": {"assay": "Drug distribution in jejunum of C57BL/6J mouse at 100 mg/kg, po administered as single dose measured for 0.5 to 3 hrs by UHPLC-Q-Orbitrap HRMS analysis", "format": "ADME, organism-based", "conditions": "in vivo, time 0.5-3 hrs"}, "[24]": {"assay": "Drug distribution in serum of C57BL/6J mouse at 100 mg/kg, po administered as single dose measured for 0.5 to 3 hrs by UHPLC-Q-Orbitrap HRMS analysis", "format": "ADME, organism-based", "conditions": "in vivo, time 0.5-3 hrs"}, "Mus musculus [25]": {"test_system": "Mus musculus", "assay": "Inhibition of irinotecan-triggered gut toxicity in C57BL/6J mouse bearing tumor cells assessed as increase in colonic length at 25 to 50 mg/kg/day, po treated for 14 days", "format": "functional, organism-based", "conditions": "dose 25-50 mg/kg/day, time 14.0 day"}, "Mus musculus [26]": {"test_system": "Mus musculus", "assay": "Inhibition of irinotecan-triggered gut toxicity in C57BL/6J mouse bearing tumor cells assessed as decrease in IL-6 level in colon tissue administered orally treated for 14 days", "format": "functional, organism-based", "conditions": "dose 25-50 mg/kg/day, route po, time 14.0 day"}, "Mus musculus [27]": {"test_system": "Mus musculus", "assay": "Inhibition of irinotecan-triggered gut toxicity in C57BL/6J mouse bearing tumor cells assessed as decrease in IL-1beta level in colon tissue administered orally treated for 14 days", "format": "functional, organism-based", "conditions": "dose 25-50 mg/kg/day, route po, time 14.0 day"}, "Mus musculus [28]": {"test_system": "Mus musculus", "assay": "Inhibition of irinotecan-triggered gut toxicity in C57BL/6J mouse bearing tumor cells assessed as decrease in TNF-alpha level in colon tissue administered orally treated for 14 days", "format": "functional, organism-based", "conditions": "dose 25-50 mg/kg/day, route po, time 14.0 day"}, "Mus musculus [29]": {"test_system": "Mus musculus", "assay": "Inhibition of irinotecan-triggered gut toxicity in C57BL/6J mouse bearing tumor cells assessed as decrease in serum AST level at 25 to 50 mg/kg/day, po treated for 14 days", "format": "functional, organism-based", "conditions": "dose 25-50 mg/kg/day, time 14.0 day"}}, "note": "Calls of active or inactive are those of the source. No cut-off for these calls is given here.", "data": [{"smiles": "CCN(C)C(=O)Oc1ccc(C(=O)N2CCC(Cc3ccccc3)CC2)cc1OC", "values": [{"measurement": "IC50", "setting": "[1]", "result": 0.69, "unit": "nM"}, {"measurement": "IC50", "setting": "[2]", "result": 0.69, "unit": "nM"}, {"measurement": "inhibition", "setting": "Homo sapiens [3]", "result": "Dose-dependent-effect"}, {"measurement": "Ki", "setting": "[4]", "result": 0.065, "unit": "nM"}, {"measurement": "Kinact", "setting": "Homo sapiens [5]", "result": 0.033, "unit": "min⁻¹"}, {"measurement": "IC50", "setting": "[6]", "result": 2420, "unit": "nM"}, {"measurement": "IC50", "setting": "Cholinesterase", "result": 834, "unit": "nM"}, {"measurement": "IC50", "setting": "Acetylcholinesterase", "result": "> 10000", "unit": "nM"}, {"measurement": "IC50", "setting": "[7]", "result": "> 10000", "unit": "nM"}, {"measurement": "Activity", "setting": "[8]", "result": 6.31, "unit": "µM"}, {"measurement": "Activity", "setting": "[9]", "result": 9.47, "unit": "µM"}, {"measurement": "Activity", "setting": "[10]", "result": 4.23, "unit": "µM"}, {"measurement": "Activity", "setting": "[11]", "result": 6.29, "unit": "µM"}, {"measurement": "Papp A→B at 2 h, 100 µM", "setting": "[12]", "result": 11.7, "unit": "×10⁻⁶ cm/s"}, {"measurement": "Papp B→A at 2 h, 25 µM", "setting": "[13]", "result": 10.1, "unit": "×10⁻⁶ cm/s"}, {"measurement": "Activity", "setting": "HepG2", "result": "Non-toxic"}, {"measurement": "inhibition (INH)", "setting": "Cytochrome P450 2C19", "result": "Not_active"}, {"measurement": "inhibition (INH)", "setting": "Cytochrome P450 3A4", "result": "Not_active"}, {"measurement": "Activity", "setting": "[14]", "result": "Non-toxic"}, {"measurement": "Activity", "setting": "[15]", "result": "Non-toxic"}, {"measurement": "Activity", "setting": "[16]", "result": "Non-toxic"}, {"measurement": "Activity", "setting": "[17]", "result": "Non-toxic"}, {"measurement": "Activity", "setting": "[18]", "result": "Non-toxic"}, {"measurement": "Activity", "setting": "[19]", "result": "Non-toxic"}, {"measurement": "Activity", "setting": "[20]", "result": "Non-toxic"}, {"measurement": "Activity", "setting": "[21]", "result": "Non-toxic"}, {"measurement": "Activity", "setting": "[22]", "result": "Non-toxic"}, {"measurement": "Drug uptake", "setting": "[23]", "result": "Active"}, {"measurement": "Drug uptake", "setting": "[24]", "result": "Not_active"}, {"measurement": "inhibition", "setting": "Mus musculus [25]", "result": "Active"}, {"measurement": "inhibition", "setting": "Mus musculus [26]", "result": "Active"}, {"measurement": "inhibition", "setting": "Mus musculus [27]", "result": "Active"}, {"measurement": "inhibition", "setting": "Mus musculus [28]", "result": "Active"}, {"measurement": "inhibition", "setting": "Mus musculus [29]", "result": "Active"}]}]}
